Laboratory results: patent US20250361230A1, “LATS Inhibitors and Uses Thereof” (The USA, as Represented by the Secretary, Dept. of Heath …, priority 2022, published 2025)
Read-outs that look alike come from different tables or passages of the source.

Target: T1, LATS1 Kinase-NanoLuc fusion in HEK-293 cells (Homo sapiens, UniProt O95835)
T1 construct: host or cells: HEK-293
T1 sequence (O95835 1-1130): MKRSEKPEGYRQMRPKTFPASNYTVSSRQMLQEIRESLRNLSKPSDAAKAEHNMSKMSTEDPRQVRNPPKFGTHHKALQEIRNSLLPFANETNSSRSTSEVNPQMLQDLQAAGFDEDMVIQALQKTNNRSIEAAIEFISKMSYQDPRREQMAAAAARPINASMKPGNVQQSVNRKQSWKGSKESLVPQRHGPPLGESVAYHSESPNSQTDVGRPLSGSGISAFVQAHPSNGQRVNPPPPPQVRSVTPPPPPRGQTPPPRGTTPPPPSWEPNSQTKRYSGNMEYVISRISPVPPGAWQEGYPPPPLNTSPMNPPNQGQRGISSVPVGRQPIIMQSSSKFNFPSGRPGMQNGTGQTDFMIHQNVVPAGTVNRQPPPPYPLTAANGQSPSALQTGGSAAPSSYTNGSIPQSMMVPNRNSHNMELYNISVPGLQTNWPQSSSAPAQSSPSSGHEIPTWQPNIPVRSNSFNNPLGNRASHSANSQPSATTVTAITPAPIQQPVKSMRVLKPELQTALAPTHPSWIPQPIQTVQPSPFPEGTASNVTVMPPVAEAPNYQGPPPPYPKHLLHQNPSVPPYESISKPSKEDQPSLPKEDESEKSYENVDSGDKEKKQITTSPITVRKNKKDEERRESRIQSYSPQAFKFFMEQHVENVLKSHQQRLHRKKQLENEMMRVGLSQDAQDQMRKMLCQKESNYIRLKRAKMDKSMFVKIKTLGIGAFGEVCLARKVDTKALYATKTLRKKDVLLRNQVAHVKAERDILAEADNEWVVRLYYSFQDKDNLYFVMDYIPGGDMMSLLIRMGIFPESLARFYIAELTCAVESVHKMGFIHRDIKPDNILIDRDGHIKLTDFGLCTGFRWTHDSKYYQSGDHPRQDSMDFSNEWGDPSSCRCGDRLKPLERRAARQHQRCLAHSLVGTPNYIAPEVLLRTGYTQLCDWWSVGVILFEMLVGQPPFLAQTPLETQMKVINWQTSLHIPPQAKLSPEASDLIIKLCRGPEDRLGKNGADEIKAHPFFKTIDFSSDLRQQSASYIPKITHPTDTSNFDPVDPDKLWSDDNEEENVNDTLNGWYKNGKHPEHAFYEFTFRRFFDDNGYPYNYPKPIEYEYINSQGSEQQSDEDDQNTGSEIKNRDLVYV
Assay: NanoBRET target engagement assay in transfected HEK-293 cells, LATS1
Format: cell-based
Procedure, shortened: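 HEK-293 cells transiently transfected with kinase-NanoLuc fusion plasmid for 22-24 h, then incubated with compound and NanoBRET tracer for 1 hour at 37° C. After substrate plus extracellular NanoLuc inhibitor addition, 460 and 600 nm emissions read; no-tracer-corrected BRET ratio used to derive IC50 values.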

[1] = Table 28, NanoBRET, HEK-293 cells, read-out: LATS1 (Cellular) IC50
[2] = Table 32, NanoBRET, HEK-293 cells, read-out: LATS1 (Cellular) IC50

Row | SMILES | IC50 [2] [µM] | IC50 (cellular) [µM] | other results
1 | Cc1cc(-c2ccnc3[nH]cc(F)c23)cc(F)c1[C@@]1(O)[C@H](C)CN(C(=O)[C@H](N)CO)C[C@@H]1C [Compound 312, (R)-2-amino-1-((3S,4R,5R)-4-(2-fluoro-4-(3-fluoro-1H-pyrrolo[2,3-b]pyridin-4-yl)-6-methylphenyl)-4-hydroxy-3,5-dimethylpiperidin-1-yl)-3-hydroxypropan-1-one] | – | – | IC50 [1]: 0.0104 µM
2 | Cc1cc(-c2ccnc3[nH]cc(F)c23)cc(F)c1[C@@]1(O)[C@H](C)CN(C(=O)[C@@H](CO)N(C)C)C[C@@H]1C [Compound 313, (R)-2-(dimethylamino)-1-((3S,4S,5R)-4-(2-fluoro-4-(3-fluoro-1H-pyrrolo[2,3-b]pyridin-4-yl)-6-methylphenyl)-4-hydroxy-3,5-dimethylpiperidin-1-yl)-3-hydroxypropan-1-one] | – | – | IC50 [1]: 0.043 µM
3 | OC1(c2ccc(-c3ccnc4[nH]cc(F)c34)cc2)CC2(CNC2)C1 [Compound 319, 6-(4-(3-fluoro-1H-pyrrolo[2,3-b]pyridin-4-yl)phenyl)-2-azaspiro[3.3]heptan-6-ol] | – | – | IC50 [1]: 27.7 µM
4 | NCC(O)(c1ccc(Cl)cc1)c1ccc(-c2ccnc3[nH]ccc23)cc1 (centres unmarked) [Compound 1001, 1-(4-(1H-pyrrolo[2,3-b]pyridin-4-yl)phenyl)-2-amino-1-(4-chlorophenyl)ethan-1-ol] | 0.123 | – | –
5 | NCC(O)(c1ccc(Cl)cc1)c1ccc(-c2ccnc3[nH]cc(F)c23)cc1 (centres unmarked) [Compound 1002, 2-amino-1-(4-chlorophenyl)-1-(4-(3-fluoro-1H-pyrrolo[2,3-b]pyridin-4-yl)phenyl)ethan-1-ol] | 0.055 | – | –
6 | COC(=O)c1c[nH]c2nccc(-c3ccc(C(O)(CN)c4ccc(Cl)cc4)cc3)c12 (centres unmarked) [Compound 1004, Methyl 4-(4-(2-amino-1-(4-chlorophenyl)-1-hydroxyethyl)phenyl)-1H-pyrrolo[2,3-b]pyridine-3-carboxylate] | 2 | – | –
7 | NCC(O)(c1ccc(Cl)cc1)c1ccc(-c2ccnc3[nH]cc(Br)c23)cc1 (centres unmarked) [Compound 1005, 2-amino-1-(4-(3-bromo-1H-pyrrolo[2,3-b]pyridin-4-yl)phenyl)-1-(4-chlorophenyl)ethan-1-ol] | 0.008 | – | –
8 | NCC(O)(c1ccc(Cl)cc1)c1ccc(-c2ccnc3[nH]cc(-c4ccccc4)c23)cc1 (centres unmarked) [Compound 1006, 2-amino-1-(4-chlorophenyl)-1-(4-(3-phenyl-1H-pyrrolo[2,3-b]pyridin-4-yl)phenyl)ethan-1-ol] | 0.283 | – | –
9 | NCC(O)(c1ccc(Cl)cc1)c1ccc(-c2ccnc3[nH]cc(-c4cccnc4)c23)cc1 (centres unmarked) [Compound 1007, 2-amino-1-(4-chlorophenyl)-1-(4-(3-(pyridin-3-yl)-1H-pyrrolo[2,3-b]pyridin-4-yl)phenyl)ethan-1-ol] | 0.309 | – | –
10 | NCC(O)(c1ccc(Cl)cc1)c1ccc(-c2ccnc3[nH]cc(Br)c23)nc1 (centres unmarked) [Compound 1011, 2-amino-1-(6-(3-bromo-1H-pyrrolo[2,3-b]pyridin-4-yl)pyridin-3-yl)-1-(4-chlorophenyl)ethan-1-ol] | 0.024 | – | –
11 | NCC(=O)NCC(O)(c1ccc(Cl)cc1)c1ccc(-c2ccnc3[nH]cc(Cl)c23)cc1 (centres unmarked) [Compound 1021, 2-amino-N-(2-(4-(3-chloro-1H-pyrrolo[2,3-b]pyridin-4-yl)phenyl)-2-(4-chlorophenyl)-2-hydroxyethyl) acetamide] | 0.159 | – | –

More lines, main results first:

Row | IC50 [2] [µM] | IC50 (cellular) [µM] | SMILES | other results
12 | – | 0.0304 | Cc1cc(-c2ccnc3[nH]cc(C#N)c23)cc(F)c1[C@@]1(O)[C@H](C)CN(C2CCS(=O)(=O)CC2)C[C@@H]1C [Compound 2002, 4-(4-((3S,4s,5R)-1-(1,1-dioxidotetrahydro-2H-thiopyran-4-yl)-4-hydroxy-3,5-dimethylpiperidin-4-yl)-3-fluoro-5-methylphenyl)-1H-pyrrolo[2,3-b]pyridine-3-carbonitrile] | –
13 | – | 0.0025 | Cc1cc(-c2ccnc3[nH]cc(C#N)c23)cc(F)c1[C@@]1(O)[C@H](C)CN(C(=O)CN)C[C@@H]1C [Compound 2004, 4-(3-fluoro-4-((3S,4s,5R)-1-glycyl-4-hydroxy-3,5-dimethylpiperidin-4-yl)-5-methylphenyl)-1H-pyrrolo[2,3-b]pyridine-3-carbonitrile] | –
14 | – | 0.0466 | Cc1cc(-c2ccnc3[nH]cc(C#N)c23)ccc1[C@@]1(O)[C@H](C)CN(C(=O)CN)C[C@@H]1C [Compound 2005, 4-(4-((3S,4s,5R)-1-glycyl-4-hydroxy-3,5-dimethylpiperidin-4-yl)-3-methylphenyl)-1H-pyrrolo[2,3-b]pyridine-3-carbonitrile] | –
15 | – | < 0.0025 | Cc1cc(-c2ccnc3[nH]cc(C#N)c23)cc(F)c1[C@@]1(O)[C@H](C)CN(C(=O)[C@H](N)CO)C[C@@H]1C [Compound 2007, 4-(4-((3S,4S,5R)-1-(D-seryl)-4-hydroxy-3,5-dimethylpiperidin-4-yl)-3-fluoro-5-methylphenyl)-1H-pyrrolo[2,3-b]pyridine-3-carbonitrile] | –
16 | – | < 0.0025 | Cc1cc(-c2ccnc3[nH]cc(C#N)c23)cc(F)c1[C@@]1(O)[C@H](C)CN(C(=O)[C@](C)(N)CO)C[C@@H]1C [Compound 2008, 4-(4-((3S,4s,5R)-1-(2-amino-3-hydroxy-2-methylpropanoyl)-4-hydroxy-3,5-dimethylpiperidin-4-yl)-3-fluoro-5-methylphenyl)-1H-pyrrolo[2,3-b]pyridine-3-carbonitrile] | –
17 | – | < 0.0025 | Cc1cc(-c2ccnc3[nH]cc(C#N)c23)cc(F)c1[C@@]1(O)[C@H](C)CN(C(=O)[C@H](C)N)C[C@@H]1C [Compound 2011, 4-(4-((3S,4R,5R)-1-(L-alanyl)-4-hydroxy-3,5-dimethylpiperidin-4-yl)-3-fluoro-5-methylphenyl)-1H-pyrrolo[2,3-b]pyridine-3-carbonitrile] | –
18 | – | < 0.0025 | CNCC(=O)N1C[C@@H](C)[C@](O)(c2c(C)cc(-c3ccnc4[nH]cc(C#N)c34)cc2F)[C@@H](C)C1 [Compound 2012, 4-(3-fluoro-4-((3S,4s,5R)-4-hydroxy-3,5-dimethyl-1-(methylglycyl)piperidin-4-yl)-5-methylphenyl)-1H-pyrrolo[2,3-b]pyridine-3-carbonitrile] | –
19 | – | 0.139 | Cc1cc(-c2ccnc3[nH]cc(C#N)c23)cc(F)c1[C@@]1(O)[C@H](C)CN(C(=O)CNCC(F)(F)F)C[C@@H]1C [Compound 2014, 4-(3-fluoro-4-((3S,4s,5R)-4-hydroxy-3,5-dimethyl-1-((2,2,2-trifluoroethyl)glycyl)piperidin-4-yl)-5-methylphenyl)-1H-pyrrolo[2,3-b]pyridine-3-carbonitrile] | –
20 | – | < 0.0025 | Cc1cc(-c2ccnc3[nH]cc(C#N)c23)cc(F)c1[C@@]1(O)[C@H](C)CN(C(=O)[C@@H](C)N)C[C@@H]1C [Compound 2015, 4-(4-((3S,4S,5R)-1-(D-alanyl)-4-hydroxy-3,5-dimethylpiperidin-4-yl)-3-fluoro-5-methylphenyl)-1H-pyrrolo[2,3-b]pyridine-3-carbonitrile] | –
21 | – | < 0.0025 | Cc1cc(-c2ccnc3[nH]cc(C#N)c23)cc(F)c1[C@@]1(O)[C@H](C)CN(C(=O)C(N)C(F)(F)F)C[C@@H]1C (stereo partly drawn) [Compound 2017, 4-(4-((3S,4s,5R)-1-(2-amino-3,3,3-trifluoropropanoyl)-4-hydroxy-3,5-dimethylpiperidin-4-yl)-3-fluoro-5-methylphenyl)-1H-pyrrolo[2,3-b]pyridine-3-carbonitrile] | –
22 | – | < 0.0025 | Cc1cc(-c2ccnc3[nH]cc(C#N)c23)cc(F)c1[C@@]1(O)[C@H](C)CN(C(=O)[C@H](CO)N(C)C)C[C@@H]1C [Compound 2023, 4-(4-((3S,4R,5R)-1-(dimethyl-L-seryl)-4-hydroxy-3,5-dimethylpiperidin-4-yl)-3-fluoro-5-methylphenyl)-1H-pyrrolo[2,3-b]pyridine-3-carbonitrile] | –
23 | – | 0.0379 | Cc1cc(-c2ccnc3[nH]cc(C#N)c23)cc(F)c1[C@@]1(O)[C@H](C)CNC[C@@H]1C [Compound 2024, 4-(3-fluoro-4-((3S,4s,5R)-4-hydroxy-3,5-dimethylpiperidin-4-yl)-5-methylphenyl)-1H-pyrrolo[2,3-b]pyridine-3-carbonitrile] | –
